For orientation: pKa means the pH at which an ionisable group is half protonated. As a reminder, the GI50 is the concentration that inhibits growth by half.

Where two headings read alike, the source gives them in different places.

On the set-up of data set [1]: method as in earlier work. The settings on record: heterocyclic ligand; cited from earlier work.
Data set [2] deals with HT29 colon. Set-up: method as in PMID 36142383. The settings on record: MTT assay, 72 h; cited from earlier work.
The test system of data set [3] is non-tumour derived MCF10A breast line. Set-up: method as in PMID 36142383. The following applies: MTT assay, 72 h; cited from earlier work.
The test system of a further data set is A431 skin. Also noted: method as in PMID 36142383. The settings on record: MTT assay, 72 h; cited from earlier work. In general terms: Tetrazolium dyes change colour on reduction, which living cells bring about.
For the next data set, the system named is H460 lung. Set-up: method as in PMID 36142383. The settings on record: MTT assay, 72 h; cited from earlier work.
A further data set deals with MIA pancreas. Also noted: method as in PMID 36142383. The settings on record: MTT assay, 72 h; cited from earlier work.
For data set [4], the system named is ADDP-resistant ovarian variant. Set-up: method as in PMID 36142383. The following applies: MTT assay, 72 h; cited from earlier work.
A further data set has as its system A2780 ovarian. Also noted: method as in PMID 36142383. The settings on record: MTT assay, 72 h; cited from earlier work.
In data set [5] the test system is Du145 prostate. Also noted: method as in PMID 36142383. The following applies: MTT assay, 72 h; cited from earlier work.
A further data set has as its system MCF-7 breast. Also noted: method as in PMID 36142383. The settings on record: MTT assay, 72 h; cited from earlier work.
Another data set has as its system BE2-C neuroblastoma. Also noted: method as in PMID 36142383. The following applies: MTT assay, 72 h; cited from earlier work.
The subject of a further data set is SJ-G2 glioblastoma. Set-up: method as in PMID 36142383. The following applies: MTT assay, 72 h; cited from earlier work.
Data set [6] relates to panel of cell lines. Set-up: method as in PMID 36142383. The following applies: average over the cell lines tested, MTT assay, 72 h; cited from earlier work.
The test system of data set [7] is HT29 colon cells. Set-up: method as in PMID 36142383. The settings on record: cited from earlier work.
Another data set has as its system U87 glioblastoma. Set-up: method as in PMID 36142383. The settings on record: MTT assay, 72 h; cited from earlier work.
Data set [8] relates to panel of cell lines. As to the kind of experiment: MTT growth inhibition assay, whole panel of cell lines. It counts as cell-based, human. The following applies: platinum(IV) precursor less cytotoxic than platinum(II) precursor, all cell lines.
In data set [9] the test system is HT29 colon cells. The data set is described as follows: ROS detection assay (DCFH-DA). It counts as cell-based, human. The settings on record: HT29 colon cells, treated at GI50 concentration (TBHP positive control 20 μM).
For data set [10], the system named is PC3 (prostate carcinoma) tumour xenografts. Set-up: method as in PMID 18997969. The following applies: PC3 xenograft mice; cited from earlier work.
The test system of data set [11] is murine leukaemia cell line (L1210). The settings on record: cited from earlier work.
Data set [12] concerns peritoneal carcinomatosis. Set-up: method as in PMID 20535526. The following applies: cited from earlier work.
Data set [13] relates to ADDP-resistant ovarian variant. As to the kind of experiment: MTT growth inhibition assay, ADDP. It counts as cell-based, human.
The test system of data set [14] is murine leukaemia cell line (L1210). The data set is described as follows: Cytotoxicity in L1210 (literature). It counts as cell-based. The following applies: SS more cytotoxic than RR. From the text: Chirality is crucial to the biological activity of the studied complexes.
Data set [15] relates to HT29 colon. The data set is described as follows: MTT growth inhibition assay, HT29. It counts as cell-based, human.
Data set [16] relates to Du145 prostate. The data set is described as follows: MTT growth inhibition assay, Du145. In kind it is cell-based, human. The settings on record: Du145 prostate, ratio of GI50 values.

With `Cc1c(C)c2cccnc2c2ncccc12` [5,6-Me2phen, 5,6-dimethyl-1,10-phenanthroline], the pKa in [1] was 5.6.
For `Cc1c(C)c2c3c4c1=CC=C[N]4[Pt+2]([OH])([OH])[N]3C=CC=2.N[C@H]1CCCC[C@@H]1N` [56MESS(IV)(OH)2], the concentration for 50% growth inhibition (GI50) with HT29 colon [2] is 36 ± 7 nM; in data set [3], 61 ± 7 nM; with A431 skin it was 120 ± 22 nM; in the data set on H460 lung, 190 ± 150 nM; in the data set on MIA pancreas, 43 ± 2.5 nM; in data set [4], 170 ± 120 nM. For the same compound, the GI50 in the data set on A2780 ovarian is 59 ± 7 nM; with Du145 prostate [5], 15 ± 2.6 nM; in the data set on MCF-7 breast, 480 ± 140 nM; with BE2-C neuroblastoma, 240 ± 22 nM; with SJ-G2 glioblastoma, 210 ± 45 nM; in the data set on panel of cell lines [6], 151 ± 50 nM. In addition, the GI50 in the data set on U87 glioblastoma is 190 ± 23 nM. The “ROS production 24 h” value with HT29 colon cells [7] is given as 259 ± 3 RFU. The “ROS production 48 h” value in the data set on HT29 colon cells [7] is recorded as 356 ± 11 RFU. In addition, the “ROS production 72 h” value in the data set with HT29 colon cells [7] is given as 438 ± 7 RFU. In the data set with panel of cell lines [8], the “fold difference in average GI50 versus corresponding platinum(II) precursor” value is 4 fold.
As for `N.N.[Cl][Pt][Cl]` [Cisplatin, Cis-diamminedichloroplatinum(II)], the GI50 in the data set with HT29 colon [2] was 11300 nM; in [3], 5200 ± 520 nM; in the data set on A431 skin it was 2400 ± 300 nM; with H460 lung, 900 ± 200 nM; in the data set on MIA pancreas it was 7500 ± 1300 nM; in data set [4] it was 28000 nM. In addition, the GI50 in the data set with A2780 ovarian was 1000 ± 100 nM; in the data set with Du145 prostate [5], 1200 ± 100 nM; in the data set on MCF-7 breast, 6500 ± 800 nM; in the data set with BE2-C neuroblastoma, 1900 ± 200 nM; in the data set with SJ-G2 glioblastoma, 400 ± 100 nM; with panel of cell lines [6], 5840 ± 610 nM. Further, the GI50 in the data set with U87 glioblastoma was 3800 ± 1100 nM. Also, the “ROS production 24 h” value in the data set with HT29 colon cells [9] (24 h) was 221 ± 10 RFU. For the same compound, the “ROS production 48 h” value in the data set on HT29 colon cells [9] (48 h) came out at 280 ± 12 RFU. Besides, in the data set with HT29 colon cells [9] (72 h), the “ROS production 72 h” value was 318 ± 9 RFU. In data set [10], the “mean tumour weight in relation to the control group” value is recorded as “comparable decrease in mean tumour weight”.
With `Cc1c(C)c2c3c4c1=CC=C[N]4[Pt+2][N]3C=CC=2.N[C@@H]1CCCC[C@H]1N` [Complex 56MERR], in data set [11], the GI50 was 460 nM.
With `Cc1c(C)c2cccnc2c2ncccc12.N[C@H]1CCCC[C@@H]1N.[Pt]` [Complex 56MESS, [Pt^II(5,6-Me2phen)(SS-DACH)]^2+], the GI50 in the data set with HT29 colon [2] is 10 ± 1.6 nM; in data set [3] it was 16 ± 1 nM; with A431 skin, 29 ± 1 nM; with H460 lung, 21 ± 2 nM; with MIA pancreas, 13 ± 2 nM; in data set [11], 9 nM. Also, the 50% growth inhibitory concentration (GI50) in data set [4] is 13 ± 2 nM; with A2780 ovarian, 76 ± 57 nM; with Du145 prostate [5], 4.6 ± 0.4 nM; in the data set on MCF-7 breast it was 93 ± 44 nM; with BE2-C neuroblastoma, 59 ± 4 nM; in the data set with SJ-G2 glioblastoma, 66 ± 22 nM. The GI50 in the data set with panel of cell lines [6] is 36 ± 10 nM; in the data set on U87 glioblastoma it was 35 ± 6.4 nM. For the same compound, the nephrotoxicity result in data set [12] (at pharmacological doses) was “induced nephrotoxicity”. Further, the tumour suppression response result in [12] (intravenous and intraperitoneal treatment) is “did not elicit a tumour suppression response”. Further, the “fold more potent than cisplatin” value in [13] (ADDP-resistant ovarian variant, ratio of GI50 values) worked out at 2150 fold. The “ROS production 24 h” value in the data set on HT29 colon cells [7] was 240 ± 5 RFU. In addition, the “ROS production 48 h” value with HT29 colon cells [7] is 218 ± 3 RFU. For the same compound, in the data set on HT29 colon cells [7], the “ROS production 72 h” value is 255 ± 4 RFU. In [14], the “fold difference in cytotoxicity between RR-DACH and SS-DACH enantiomer” value turned out to be 51 fold. Besides, the “fold more reactive compared to cisplatin” value in the data set with HT29 colon [15] (HT29 colon, ratio of GI50 values) was 1100 fold. The “fold increase in potency over carboplatin” value in the data set with Du145 prostate [16] is given as approximately 3300 fold. The “fold increase in potency over oxaliplatin” value with Du145 prostate [16] is 630 fold.
For `C1=C[N]2[Pt+2][N]3C=CC=c4ccc(c2c43)=C1.N[C@@H]1CCCC[C@H]1N` [PHENRR], the concentration for 50% growth inhibition (GI50) in [11] is 1500 nM.
As for `N[C@H]1CCCC[C@@H]1N.[OH][Pt+2]1([OH])[N]2C=CC=c3ccc4c(c32)[N]1C=CC=4` [PHENSS(IV)(OH)2], the GI50 is 710 ± 300 nM in the data set with HT29 colon [2]; 1700 ± 200 nM in data set [3]; 4300 ± 530 nM in the data set on A431 skin; 1700 ± 200 nM in the data set on H460 lung; 3400 ± 2200 nM with MIA pancreas; 1300 ± 350 nM in data set [4]. Moreover, the 50% growth inhibitory concentration (GI50) with A2780 ovarian was 800 ± 84 nM; in the data set with Du145 prostate [5], 310 ± 92 nM; in the data set on MCF-7 breast it was 16000 nM; in the data set on BE2-C neuroblastoma, 3000 ± 530 nM; in the data set on SJ-G2 glioblastoma, 1700 ± 350 nM; in the data set with panel of cell lines [6] it was 3320 ± 880 nM. In the data set on U87 glioblastoma, the 50% growth inhibitory concentration (GI50) is 4900 ± 610 nM. In addition, the “ROS production 24 h” value in the data set on HT29 colon cells [7] is 144 ± 5 RFU. Further, the “ROS production 48 h” value in the data set on HT29 colon cells [7] is reported as 273 ± 4 RFU. Further, the “ROS production 72 h” value in the data set with HT29 colon cells [7] is recorded as 303 ± 1 RFU. Moreover, the “fold difference in average GI50 versus corresponding platinum(II) precursor” value with panel of cell lines [8] is approximately 8 fold.
Take `C1=C[N]2[Pt+2][N]3C=CC=c4ccc(c2c43)=C1.N[C@H]1CCCC[C@@H]1N` [PHENSS, [Pt^II(phen)(SS-DACH)]^2+]: the 50% growth inhibitory concentration (GI50) was 160 ± 45 nM with HT29 colon [2]; 300 ± 58 nM in [3]; 480 ± 170 nM in the data set with A431 skin; 360 ± 35 nM in the data set with H460 lung; 200 ± 57 nM in the data set on MIA pancreas; 130 nM in data set [11]. The GI50 in data set [4] is 190 ± 47 nM; with A2780 ovarian, 230 ± 30 nM; with Du145 prostate [5] it was 100 ± 38 nM; in the data set on MCF-7 breast, 1500 ± 500 nM; in the data set on BE2-C neuroblastoma it was 380 ± 46 nM; in the data set with SJ-G2 glioblastoma, 330 ± 66 nM. For the same compound, the GI50 in the data set on panel of cell lines [6] was 434 ± 110 nM; in the data set with U87 glioblastoma, 980 ± 270 nM. In addition, in data set [13], the “fold more potent than cisplatin” value is given as approximately 150 fold. Moreover, the “ROS production 24 h” value in the data set with HT29 colon cells [7] is 174 ± 2 RFU. For the same compound, the “ROS production 48 h” value in the data set on HT29 colon cells [7] is reported as 172 ± 9 RFU. Moreover, the “ROS production 72 h” value with HT29 colon cells [7] was 176 ± 7 RFU. In data set [10], the “mean tumour weight in relation to the control group” value is “comparable decrease in mean tumour weight”. In addition, the toxicity / mortality entry in data set [10] was “no obvious signs of toxicity”. In data set [14], the “fold difference in cytotoxicity between RR-DACH and SS-DACH enantiomer” value is listed as approximately 12 fold. The “fold more reactive compared to cisplatin” value in the data set with HT29 colon [15] stood at 70 fold.
Take `c1cnc2c(c1)ccc1cccnc12` [phen, 1,10-phenanthroline]: the pKa in [1] is 4.9.
